The results in this text go back to patent US20080234299A1, “Quinazolinones” (MERCK PATENT GMBH, priority 2005, published 2008).

The test system of this assay is cells. Put plainly: cell cycle experiments (G2/M). It is filed as cell-based.

In the case of `N=C(N)c1ccc(OCCCCCOc2ccc(C(=N)N)cc2)cc1` [pentamidine], the “effect on cell cycle” value was “maintain cells in the G2/M cell cycle”.
